Values quoted from earlier work, collected in patent publication US20080293724A1, “Methods Using Hydralazine Compounds and Isosorbide Dinitrate or Isosorbide Mononitrate” (NITROMED, INC., priority 2006, published 2008).
Structures can show the parent of a compound that is named as a salt.

Compound	solubility in alcohol (alcohol)	solubility in ether (ether)	solubility in water	solubility in organic solvents (organic solvents such as ethanol, ether and chloroform)
NNc1nncc2ccccc12 [Hydralazine hydrochloride, hydralazine hydrochloride]	slightly soluble	very slightly soluble	soluble	–
O=[N+]([O-])O[C@H]1CO[C@H]2[C@@H]1OC[C@H]2O[N+](=O)[O-] [isosorbide dinitrate, 1,4,3,6-dianhydro-D-glucitol-2,5-dinitrate]	–	–	sparingly soluble	freely soluble
